Measurements from the OligoGym collection.
HELM strings list units from the 5' end as sugar, base in round brackets, then linkage (d deoxyribose, r ribose, m 2'-O-methyl, p phosphodiester). Strings are as the collection lists them, not checked against the first reports. ss, as = sense and antisense strand; [lna] = locked nucleic acid (LNA); [una] = unlocked nucleic acid; [s4r] = 4'-thioribose; [fl2r] = 2'-fluoro

Details: siRNA
Also: test system not given here.

Substance	target mRNA knockdown
RNA1{r(C)p.r(C)p.r(U)p.r(C)p.r(G)p.r(G)p.r(A)p.r(G)p.r(A)p.r(G)p.r(U)p.r(U)p.r(C)p.m(U)p.r(A)p.r(C)p.r(U)p.r(C)p.r(U)p.r(T)p.r(T)}|RNA2{r(A)p.r(G)p.r(A)p.r(G)p.m(U)p.r(A)p.r(G)p.r(A)p.r(A)p.r(C)p.r(U)p.r(C)p.r(U)p.r(C)p.r(C)p.r(G)p.r(A)p.r(G)p.r(G)p.r(T)p.r(T)}$$$RNA1{StrandType:ss}|RNA2{StrandType:as}$	85%
RNA1{r(G)p.r(G)p.r(A)p.r(C)p.r(A)p.r(U)p.r(U)p.r(C)p.r(A)p.r(G)p.r(A)p.r(A)p.r(C)p.r(A)p.r(A)p.r(G)p.r(A)p.r(A)p.r(A)p.[una](U)p.[una](U)}|RNA2{r(U)p.r(U)p.[una](U)p.r(C)p.r(U)p.r(U)p.r(G)p.r(U)p.r(U)p.r(C)p.r(U)p.r(G)p.r(A)p.r(A)p.r(U)p.r(G)p.r(U)p.r(C)p.r(C)p.[una](U)p.[una](U)}$$$RNA1{StrandType:ss}|RNA2{StrandType:as}$	0%
RNA1{r(A)p.r(G)p.[fl2r](U)p.r(A)p.r(A)p.[fl2r](U)p.[fl2r](C)p.[fl2r](C)p.r(G)p.r(G)p.r(A)p.[fl2r](C)p.[fl2r](U)p.[fl2r](C)p.r(A)p.r(A)p.[fl2r](C)p.[fl2r](U)p.[fl2r](C)p.r(T)p.r(T)}|RNA2{r(G)p.r(A)p.r(G)p.r(U)p.r(U)p.r(G)p.r(A)p.r(G)p.r(U)p.r(C)p.r(C)p.r(G)p.r(G)p.r(A)p.r(U)p.r(U)p.r(A)p.r(C)p.r(U)p.r(T)p.r(T)}$$$RNA1{StrandType:ss}|RNA2{StrandType:as}$	59%
RNA1{r(C)p.r(C)p.r(G)p.r(A)p.r(G)p.r(A)p.r(G)p.r(C)p.r(U)p.r(C)p.r(U)p.r(C)p.r(C)p.m(U)p.r(A)p.r(C)p.r(C)p.r(U)p.r(U)p.r(T)p.r(T)}|RNA2{r(A)p.r(A)p.r(G)p.r(G)p.m(U)p.r(A)p.r(G)p.r(G)p.r(A)p.r(G)p.r(A)p.r(G)p.r(C)p.r(U)p.r(C)p.r(U)p.r(C)p.r(G)p.r(G)p.r(T)p.r(T)}$$$RNA1{StrandType:ss}|RNA2{StrandType:as}$	75%
RNA1{r(C)p.r(U)p.r(U)p.r(C)p.r(U)p.r(U)p.r(C)p.r(G)p.r(U)p.r(C)p.r(G)p.r(A)p.r(G)p.r(A)p.r(C)p.r(C)p.r(A)p.r(U)p.r(G)p.d(T)p.d(T)}|RNA2{r(C)p.r(A)p.r(U)p.r(G)p.r(G)p.r(U)p.r(C)p.r(U)p.r(C)p.r(G)p.r(A)p.r(C)p.r(G)p.r(A)p.r(A)p.r(G)p.r(A)p.r(A)p.r(G)p.d(T)p.d(T)}$$$RNA1{StrandType:ss}|RNA2{StrandType:as}$	45%
RNA1{m(U)p.r(A)p.r(C)p.r(C)p.r(G)p.r(A)p.r(G)p.r(A)p.r(A)p.m(U)p.r(G)p.r(A)p.r(G)p.r(C)p.r(C)p.m(U)p.r(G)p.r(A)p.r(U)p.r(T)p.r(T)}|RNA2{r(A)p.r(U)p.m(C)p.r(A)p.r(G)p.r(G)p.r(C)p.r(U)p.m(C)p.r(A)p.r(U)p.r(U)p.r(C)p.r(U)p.r(C)p.r(G)p.r(G)p.m(U)p.r(A)p.r(T)p.r(T)}$$$RNA1{StrandType:ss}|RNA2{StrandType:as}$	54%
RNA1{r(C)p.r(U)p.r(U)p.r(A)p.r(C)p.r(G)p.r(C)p.r(U)p.r(G)p.r(A)p.r(G)p.r(U)p.r(A)p.r(C)p.r(U)p.r(U)p.r(C)p.r(G)p.r(A)p.r(T)p.r(T)}|RNA2{r(T)p.r(C)p.r(G)p.[lna](A)p.r(A)p.r(G)p.r(U)p.r(A)p.r(C)p.r(U)p.r(C)p.r(A)p.r(G)p.r(C)p.r(G)p.r(U)p.r(A)p.r(A)p.r(G)p.[lna](T)p.[lna](T)}$$$RNA1{StrandType:ss}|RNA2{StrandType:as}$	91%
RNA1{r(G)p.r(C)p.r(G)p.r(A)p.r(G)p.m(C)p.r(A)p.r(G)p.r(A)p.r(G)p.r(A)p.r(A)p.r(U)p.r(C)p.m(U)p.r(A)p.r(C)p.r(C)p.r(U)p.r(T)p.r(T)}|RNA2{r(A)p.r(G)p.r(G)p.m(U)p.r(A)p.r(G)p.r(A)p.r(U)p.r(U)p.r(C)p.r(U)p.r(C)p.m(U)p.r(G)p.r(C)p.r(U)p.r(C)p.r(G)p.r(C)p.r(T)p.r(T)}$$$RNA1{StrandType:ss}|RNA2{StrandType:as}$	90%
RNA1{[s4r](C)p.[s4r](G)p.[s4r](U)p.[s4r](A)p.[s4r](C)p.[s4r](G)p.r(C)p.r(G)p.r(G)p.r(A)p.r(A)p.r(U)p.r(A)p.[s4r](C)p.[s4r](U)p.[s4r](U)p.[s4r](C)p.[s4r](G)p.[s4r](A)p.r(T)p.r(T)}|RNA2{[s4r](U)p.[s4r](C)p.r(G)p.r(A)p.r(A)p.r(G)p.r(U)p.r(A)p.r(U)p.r(U)p.r(C)p.r(C)p.r(G)p.r(C)p.r(G)p.r(U)p.r(A)p.[s4r](C)p.[s4r](G)p.r(T)p.r(T)}$$$RNA1{StrandType:ss}|RNA2{StrandType:as}$	28.6%
RNA1{r(A)p.r(A)p.r(C)p.r(U)p.r(C)p.m(U)p.r(A)p.r(C)p.r(U)p.r(G)p.r(U)p.r(G)p.r(G)p.r(A)p.r(G)p.r(U)p.r(C)p.r(G)p.r(G)p.r(T)p.r(T)}|RNA2{r(C)p.r(C)p.r(G)p.r(A)p.r(C)p.r(U)p.r(C)p.r(C)p.r(A)p.r(C)p.r(A)p.r(G)p.m(U)p.r(A)p.r(G)p.r(A)p.r(G)p.r(U)p.r(U)p.r(T)p.r(T)}$$$RNA1{StrandType:ss}|RNA2{StrandType:as}$	69%
RNA1{r(A)p.r(G)p.r(U)p.r(U)p.r(U)p.r(C)p.[fl2r](U)p.[fl2r](A)p.r(G)p.r(G)p.r(G)p.r(C)p.r(C)p.r(G)p.r(U)p.r(G)p.r(G)p.r(C)p.r(C)p.r(T)p.r(T)}|RNA2{r(G)p.r(G)p.r(C)p.r(C)p.r(A)p.r(C)p.r(G)p.r(G)p.r(C)p.r(C)p.r(C)p.[fl2r](U)p.r(A)p.r(G)p.r(A)p.r(A)p.r(A)p.r(C)p.r(U)p.r(T)p.r(T)}$$$RNA1{StrandType:ss}|RNA2{StrandType:as}$	82%
RNA1{m(C)p.r(U)p.m(G)p.r(A)p.m(C)p.r(C)p.m(G)p.r(G)p.m(A)p.r(A)p.m(G)p.r(C)p.m(G)p.r(C)p.m(U)p.r(U)p.m(A)p.r(A)p.r(A)p.r(T)p.r(T)}|RNA2{r(U)p.r(U)p.r(U)p.r(A)p.r(A)p.r(G)p.r(C)p.r(G)p.m(C)p.r(U)p.r(U)p.r(C)p.m(C)p.r(G)p.r(G)p.r(U)p.m(C)p.r(A)p.r(G)p.r(T)p.r(T)}$$$RNA1{StrandType:ss}|RNA2{StrandType:as}$	27%
RNA1{[fl2r](G)p.r(U)p.[fl2r](U)p.r(C)p.[fl2r](A)p.r(C)p.[fl2r](G)p.r(U)p.[fl2r](C)p.r(C)p.[fl2r](U)p.r(A)p.[fl2r](C)p.r(C)p.[fl2r](C)p.r(C)p.[fl2r](U)p.r(U)p.[fl2r](U)p.r(T)p.r(T)}|RNA2{r(A)p.r(A)p.r(A)p.r(G)p.r(G)p.r(G)p.r(G)p.r(U)p.r(A)p.r(G)p.r(G)p.r(A)p.[fl2r](C)p.r(G)p.r(U)p.r(G)p.r(A)p.r(A)p.[fl2r](C)p.r(T)p.r(T)}$$$RNA1{StrandType:ss}|RNA2{StrandType:as}$	23%
RNA1{[fl2r](C)p.r(G)p.[fl2r](G)p.r(G)p.[fl2r](U)p.r(A)p.[fl2r](C)p.r(G)p.[fl2r](A)p.r(G)p.[fl2r](C)p.r(C)p.[fl2r](G)p.r(G)p.[fl2r](A)p.r(A)p.[fl2r](C)p.r(C)p.r(U)p.r(T)p.r(T)}|RNA2{r(A)p.r(G)p.r(G)p.r(U)p.r(U)p.r(C)p.r(C)p.r(G)p.r(G)p.r(C)p.r(U)p.r(C)p.r(G)p.r(U)p.r(A)p.r(C)p.r(C)p.r(C)p.r(G)p.r(T)p.r(T)}$$$RNA1{StrandType:ss}|RNA2{StrandType:as}$	61%
RNA1{[fl2r](G)p.m(A)p.[fl2r](C)p.m(G)p.[fl2r](U)p.m(A)p.[fl2r](A)p.m(A)p.[fl2r](C)p.m(G)p.[fl2r](G)p.m(C)p.[fl2r](C)p.m(A)p.[fl2r](C)p.m(A)p.[fl2r](A)p.m(G)p.[fl2r](U)p.m(U)p.[fl2r](C)}|RNA2{r(A)p.r(C)p.[lna](T)p.r(U)p.r(G)p.[lna](T)p.r(G)p.r(G)p.r(C)p.r(C)p.r(G)p.r(U)p.r(U)p.[lna](T)p.r(A)p.r(C)p.r(G)p.[lna](T)p.r(C)p.[lna](G)p.[lna](C)}$$$RNA1{StrandType:ss}|RNA2{StrandType:as}$	1.5%
RNA1{m(A)p.r(G)p.m(A)p.r(A)p.m(A)p.r(A)p.m(G)p.r(C)p.m(A)p.r(G)p.m(C)p.r(G)p.m(A)p.r(U)p.m(A)p.r(C)p.m(G)p.r(C)p.m(U)p.r(T)p.r(T)}|RNA2{r(A)p.r(G)p.r(C)p.r(G)p.r(U)p.r(A)p.r(U)p.r(C)p.r(G)p.r(C)p.r(U)p.r(G)p.r(C)p.r(U)p.r(U)p.r(U)p.r(U)p.r(C)p.r(U)p.r(T)p.r(T)}$$$RNA1{StrandType:ss}|RNA2{StrandType:as}$	34%
RNA1{r(A)p.r(G)p.[fl2r](U)p.r(A)p.r(A)p.r(U)p.r(C)p.r(C)p.r(G)p.r(G)p.r(A)p.r(C)p.r(U)p.r(C)p.r(A)p.r(A)p.r(C)p.r(U)p.r(C)p.r(T)p.r(T)}|RNA2{r(G)p.r(A)p.r(G)p.r(U)p.r(U)p.r(G)p.r(A)p.r(G)p.r(U)p.r(C)p.r(C)p.r(G)p.r(G)p.r(A)p.r(U)p.[fl2r](U)p.r(A)p.r(C)p.r(U)p.r(T)p.r(T)}$$$RNA1{StrandType:ss}|RNA2{StrandType:as}$	69%
RNA1{m(A)p.m(A)p.r(C)p.r(C)p.r(C)p.m(A)p.r(C)p.r(C)p.m(A)p.r(C)p.m(A)p.r(G)p.r(C)p.m(U)p.m(A)p.r(G)p.m(A)p.m(A)p.r(C)p.r(U)p.r(U)}|RNA2{r(A)p.r(A)p.r(G)p.r(U)p.r(U)p.r(C)p.m(U)p.r(A)p.r(G)p.r(C)p.r(U)p.r(G)p.r(U)p.r(G)p.r(G)p.r(U)p.r(G)p.r(G)p.r(G)p.r(U)p.r(U)}$$$RNA1{StrandType:ss}|RNA2{StrandType:as}$	32%
RNA1{r(G)p.r(G)p.r(U)p.r(A)p.r(G)p.r(G)p.r(G)p.r(U)p.r(U)p.r(G)p.r(A)p.r(A)p.r(G)p.r(A)p.r(G)p.r(A)p.r(C)p.r(U)p.r(U)p.r(T)p.r(T)}|RNA2{r(A)p.r(A)p.r(G)p.r(U)p.r(C)p.r(U)p.r(C)p.r(U)p.r(U)p.r(C)p.r(A)p.r(A)p.r(C)p.r(C)p.r(C)p.m(U)p.r(A)p.r(C)p.r(C)p.r(T)p.r(T)}$$$RNA1{StrandType:ss}|RNA2{StrandType:as}$	95%
RNA1{r(A)p.r(A)p.r(A)p.r(C)p.r(A)p.r(U)p.r(G)p.r(C)p.r(A)p.r(G)p.r(A)p.r(A)p.r(A)p.r(A)p.r(U)p.r(G)p.r(C)p.r(U)p.r(G)p.r(T)p.r(T)}|RNA2{[s4r](C)p.[s4r](A)p.r(G)p.r(C)p.r(A)p.r(U)p.r(U)p.r(U)p.r(U)p.r(C)p.r(U)p.r(G)p.r(C)p.r(A)p.r(U)p.r(G)p.r(U)p.[s4r](U)p.[s4r](U)p.r(T)p.r(T)}$$$RNA1{StrandType:ss}|RNA2{StrandType:as}$	42.5%
